Measurements reported in patent US10213429B2, “Imidazo-pyrazinyl derivatives useful as soluble guanylate cyclase activators” (Merck Sharp & Dohme Corp., priority 2015, dated 2019).

Key:
sGC α1/β1 heterodimer = target: T1, sGC α1/β1 heterodimer (Homo sapiens, UniProt Q02108+Q02153); assay: Cell-Based sGC Functional Assay (CASA Assay), cGMP by HTRF in CHO-K1/sGC cells; settings: for Emax: CHO-K1, percent activation relative to maximum cGMP production of Compound A (= 100%), read-out: % Act.; for EC50: cGMP production, 1 hr at 37° C., 4P fit, presence or absence of 1 μM DETA-NO not given, read-out: IP (nM) (inflection point)
T1 construct: expressed in transfected cells; host or cells: CHO-K1 (clone #7, CHO-K1/sGC)
T1 sequence (Q02108 1-690): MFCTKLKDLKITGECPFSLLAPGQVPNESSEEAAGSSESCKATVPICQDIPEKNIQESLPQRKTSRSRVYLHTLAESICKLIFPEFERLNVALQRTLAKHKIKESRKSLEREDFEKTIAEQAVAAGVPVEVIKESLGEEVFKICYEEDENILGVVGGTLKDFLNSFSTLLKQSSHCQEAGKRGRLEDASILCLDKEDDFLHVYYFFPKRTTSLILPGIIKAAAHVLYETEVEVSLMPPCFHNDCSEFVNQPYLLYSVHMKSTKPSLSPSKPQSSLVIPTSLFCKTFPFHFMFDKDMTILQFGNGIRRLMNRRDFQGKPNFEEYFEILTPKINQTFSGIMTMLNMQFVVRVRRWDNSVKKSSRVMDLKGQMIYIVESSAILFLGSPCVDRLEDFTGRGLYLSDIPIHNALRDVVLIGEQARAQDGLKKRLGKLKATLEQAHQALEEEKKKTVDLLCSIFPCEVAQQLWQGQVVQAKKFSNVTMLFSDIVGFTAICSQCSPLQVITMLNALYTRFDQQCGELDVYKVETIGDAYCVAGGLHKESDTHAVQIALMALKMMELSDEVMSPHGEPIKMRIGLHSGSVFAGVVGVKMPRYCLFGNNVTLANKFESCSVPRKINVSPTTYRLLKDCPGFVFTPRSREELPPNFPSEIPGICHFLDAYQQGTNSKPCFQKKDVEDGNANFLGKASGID
T1 sequence (Q02153 1-619): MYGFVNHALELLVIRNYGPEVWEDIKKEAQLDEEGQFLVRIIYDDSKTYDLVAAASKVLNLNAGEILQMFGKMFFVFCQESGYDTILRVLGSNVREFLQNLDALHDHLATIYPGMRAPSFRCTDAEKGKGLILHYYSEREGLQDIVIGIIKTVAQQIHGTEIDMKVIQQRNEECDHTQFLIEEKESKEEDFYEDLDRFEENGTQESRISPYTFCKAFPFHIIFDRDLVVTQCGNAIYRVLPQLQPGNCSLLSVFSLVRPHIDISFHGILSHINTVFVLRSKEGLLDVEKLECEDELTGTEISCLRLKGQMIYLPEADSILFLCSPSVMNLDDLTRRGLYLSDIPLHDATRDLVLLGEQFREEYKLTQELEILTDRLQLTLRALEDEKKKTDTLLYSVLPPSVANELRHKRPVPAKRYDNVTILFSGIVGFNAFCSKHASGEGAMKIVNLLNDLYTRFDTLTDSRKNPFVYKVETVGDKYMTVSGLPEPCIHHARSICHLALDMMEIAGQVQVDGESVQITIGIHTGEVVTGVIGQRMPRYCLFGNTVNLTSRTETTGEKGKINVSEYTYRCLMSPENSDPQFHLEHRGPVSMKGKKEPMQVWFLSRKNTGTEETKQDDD
Method in brief: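 CHO-K1 cells stably expressing human sGC α1/β1, in EBSS buffer with 5 mM MgCl2, 10 mM HEPES, 0.05% BSA and 0.5 mM IBMX, incubated with compound (2.5% DMSO) ± 1 μM DETA-NO, 1 h, 37 °C. Intracellular cGMP read by HTRF; activity as % of reference activator maximum, IP from 4-parameter fit.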

[1] = test system: Spontaneously hypertensive rats (SHR); assay: Acute Efficacy in Spontaneously Hypertensive Rats (SHR), telemetry blood pressure; type: in vivo, rat; settings: SHR male
Text: Acute Efficacy in Spontaneously Hypertensive Rats (SHR)
Spontaneously hypertensive rats (SHR, male, Charles River) were implanted with DSI TA11PA-C40 telemetry device (Data Sciences, Inc., St. Paul, Minn.) under isoflurane or ketamine/metomidine anesthesia. The telemetry unit catheter was inserted into the descending aorta via the femoral artery and the telemetry device was implanted subcutaneously in the left flank area. Animals were allowed to recover from surgery for 14 days before the start of any studies. Blood pressure, heart rate, and activity signals from conscious, freely moving rats were recorded continuously for 30 seconds every 10 minutes. On the day prior to administration of compound, a single oral dose of vehicle (10% transcutol/20% Cremophor/70% water) was administered to all animals to establish baseline control data. The blood pressure lowering efficacy of compound (PO) or vehicle was evaluated following a single oral gavage. Data were collected as hourly averages, and changes in blood pressure were calculated by subtracting control baseline data on an hourly basis. Animals were maintained on normal diet with a 12 hour light-dark cycle.
Maximum peak decreases of systolic blood pressure (SBP) in SHR at a particular P.O. dose (mpk milligrams per kilogram) for the following representative compounds are provided. • Category A=SBP in SHRs<20 mmHg; Category B=SBP in SHRs 20-40 mmHg; • Category C=SBP in SHRs>40 mmHg

| SMILES | Emax (sGC α1/β1 heterodimer) [%] | EC50 (sGC α1/β1 heterodimer) [nM] | Cat. (maximum peak decrease of systolic blood pressure (SBP) in SHR) ([1]; single oral dose 0.3 mpk P.O.) | Cat. (maximum peak decrease of systolic blood pressure (SBP) in SHR) ([1]; single oral dose 1.0 mpk P.O.) | Cat. (maximum peak decrease of systolic blood pressure (SBP) in SHR) ([1]; single oral dose 3.0 mpk P.O.) | Cat. (maximum peak decrease of systolic blood pressure (SBP) in SHR) ([1]; single oral dose 2.0 mpk P.O.) |
| --- | --- | --- | --- | --- | --- | --- |
| CC1(c2ccc(Cl)cn2)C(=O)Nc2nc(-c3cn4ccnc4c(CCC(F)(F)C(F)(F)F)n3)nc(O)c21 (stereo not drawn) [Example 17A, 5-(5-chloropyridin-2-yl)-4-hydroxy-5-methyl-2-(8-(3,3,4,4,4-pentafluorobutyl)imidazo[1,2-a]pyrazin-6-yl)-5H-pyrrolo[2,3-d]pyrimidin-6(7H)-one] | 90 | 294 | – | A (Category A=SBP in SHRs<20 mmHg) | – | – |
| CC1(c2ccc(Cl)cc2)C(=O)Nc2nc(-c3cn4ccnc4c(CCCC(F)(F)F)n3)nc(O)c21 (stereo not drawn) [Example 26A, 5-(4-chlorophenyl)-4-hydroxy-5-methyl-2-(8-(4,4,4-trifluorobutyl)imidazo[1,2-a]pyrazin-6-yl)-5H-pyrrolo[2,3-d]pyrimidin-6(7H)-one] | 90 | 200 | – | – | C (Category C=SBP in SHRs>40 mmHg) | – |
| O=C1Nc2nc(-c3cn4ccnc4c(CCCC(F)(F)F)n3)ncc2C1(c1ccc(F)c(F)c1)C1CC1 (stereo not drawn) [Example 44A, 5-cyclopropyl-5-(3,4-difluorophenyl)-2-(8-(4,4,4-trifluorobutyl)imidazo[1,2-a]pyrazin-6-yl)-5H-pyrrolo[2,3-d]pyrimidin-6(7H)-one] | 150 | 114 | – | B (Category B=SBP in SHRs 20-40 mmHg) | – | – |
| O=C1Nc2nc(-c3cn4ccnc4c(CCCC(F)(F)F)n3)nc(O)c2C1(c1ccc(F)cc1)C1CC1 (stereo not drawn) [Example 35B, 5-cyclopropyl-5-(4-fluorophenyl)-4-hydroxy-2-(8-(4,4,4-trifluorobutyl)imidazo[1,2-a]pyrazin-6-yl)-5H-pyrrolo[2,3-d]pyrimidin-6(7H)-one] | 148 | 190 | – | – | A (Category A=SBP in SHRs<20 mmHg) | – |
| CC1(c2ccc(F)cn2)C(=O)Nc2nc(-c3cn4ccnc4c(CCC(F)(F)C(F)(F)F)n3)nc(O)c21 (single isomer, unassigned) [Example 18B, 5-(5-fluoropyridin-2-yl)-4-hydroxy-5-methyl-2-(8-(3,3,4,4,4-pentafluorobutyl)imidazo[1,2-a]pyrazin-6-yl)-5H-pyrrolo[2,3-d]pyrimidin-6(7H)-one] | 78 | 365 | – | – | A (Category A=SBP in SHRs<20 mmHg) | – |
| O=C1Nc2nc(-c3cn4ccnc4c(CCCC(F)(F)F)n3)nc(O)c2C1(c1ccc(Cl)cc1)C1CC1 (stereo not drawn) [Example 24B, 5-(4-chlorophenyl)-5-cyclopropyl-4-hydroxy-2-(8-(4,4,4-trifluorobutyl)imidazo[1,2-a]pyrazin-6-yl)-5H-pyrrolo[2,3-d]pyrimidin-6(7H)-one] | 169 | 106 | – | – | A (Category A=SBP in SHRs<20 mmHg) | – |
| CC1(c2ccc(F)cc2)C(=O)Nc2nc(-c3cn4ccnc4c(CCC(F)(F)C(F)(F)F)n3)nc(O)c21 (stereo not drawn) [Example 2A, 5-(4-Fluorophenyl)-4-hydroxy-5-methyl-2-(8-(3,3,4,4,4-pentafluorobutyl)imidazo[1,2-a]pyrazin-6-yl)-5H-pyrrolo[2,3-d]pyrimidin-6(7H)-one] | 102 | 433 | – | – | B (Category B=SBP in SHRs 20-40 mmHg) | – |

Further lines, with some results ahead:

| Emax (sGC α1/β1 heterodimer) [%] | EC50 (sGC α1/β1 heterodimer) [nM] | SMILES | Cat. (maximum peak decrease of systolic blood pressure (SBP) in SHR) ([1]; single oral dose 0.3 mpk P.O.) | Cat. (maximum peak decrease of systolic blood pressure (SBP) in SHR) ([1]; single oral dose 1.0 mpk P.O.) | Cat. (maximum peak decrease of systolic blood pressure (SBP) in SHR) ([1]; single oral dose 3.0 mpk P.O.) | Cat. (maximum peak decrease of systolic blood pressure (SBP) in SHR) ([1]; single oral dose 2.0 mpk P.O.) |
| --- | --- | --- | --- | --- | --- | --- |
| 102 | 71 | CC1(c2ccc(F)cn2)C(=O)Nc2nc(-c3cn4ccnc4c(CC4CCC4)n3)ncc21 (stereo not drawn) [Example 65B, 2-(8-(cyclobutylmethyl)imidazo[1,2-a]pyrazin-6-yl)-5-(5-fluoropyridin-2-yl)-5-methyl-5H-pyrrolo[2,3-d]pyrimidin-6(7H)-one] | B (Category B=SBP in SHRs 20-40 mmHg) | – | – | – |
| 95 | 70 | CC1(c2ccc(Cl)c(F)c2)C(=O)Nc2nc(-c3cn4ccnc4c(CCC(F)(F)F)n3)ncc21 (stereo not drawn) [Example 56B, 5-(4-chloro-3-fluorophenyl)-5-methyl-2-(8-(3,3,3-trifluoropropyl)imidazo[1,2-a]pyrazin-6-yl)-5H-pyrrolo[2,3-d]pyrimidin-6(7H)-one] | – | A (Category A=SBP in SHRs<20 mmHg) | – | – |
| 188 | 73 | CCCCc1nc(-c2ncc3c(n2)NC(=O)C3(c2ccc(Cl)cn2)C2CC2)cn2ccnc12 (stereo not drawn) [Example 55A, 2-(8-butylimidazo[1,2-a]pyrazin-6-yl)-5-(5-chloropyridin-2-yl)-5-cyclopropyl-5H-pyrrolo[2,3-d]pyrimidin-6(7H)-one] | – | – | – | B (Category B=SBP in SHRs 20-40 mmHg) |
| 141 | 35 | CC1(c2ccc(F)cc2)C(=O)Nc2nc(-c3cn4ccnc4c(CCCC(F)(F)F)n3)ncc21 (stereo not drawn) [Example 64A, 5-(4-fluorophenyl)-5-methyl-2-(8-(4,4,4-trifluorobutyl)imidazo[1,2-a]pyrazin-6-yl)-5H-pyrrolo[2,3-d]pyrimidin-6(7H)-one] | B (Category B=SBP in SHRs 20-40 mmHg) | – | – | – |
| 98 | 104 | CC1(c2ccc(F)cn2)C(=O)Nc2nc(-c3cn4ccnc4c(CCC(F)(F)C(F)(F)F)n3)ncc21 (stereo not drawn) [Example 62B, 5-(5-fluoropyridin-2-yl)-5-methyl-2-(8-(3,3,4,4,4-pentafluorobutyl)imidazo[1,2-a]pyrazin-6-yl)-5H-pyrrolo[2,3-d]pyrimidin-6(7H)-one] | – | B (Category B=SBP in SHRs 20-40 mmHg) | – | – |
| 117 | 30 | CC1(c2ccc(F)cn2)C(=O)Nc2nc(-c3cn4ccnc4c(Cc4ccc(F)cc4)n3)ncc21 (stereo not drawn) [Example 5B, 2-(8-(4-fluorobenzyl)imidazo[1,2-a]pyrazin-6-yl)-5-(5-fluoropyridin-2-yl)-5-methyl-5H-pyrrolo[2,3-d]pyrimidin-6(7H)-one] | B (Category B=SBP in SHRs 20-40 mmHg) | – | – | – |
| 191 | 589 | Cc1cn2cc(-c3ncc4c(n3)NC(=O)C4(C)c3ccc(F)cn3)nc(CCCC(F)(F)F)c2n1 (stereo not drawn) [Example 90B, 5-(5-Fluoropyridin-2-yl)-5-methyl-2-(2-methyl-8-(4,4,4-trifluorobutyl)imidazo[1,2-a]pyrazin-6-yl)-5H-pyrrolo[2,3-d]pyrimidin-6(7H)-one] | B (Category B=SBP in SHRs 20-40 mmHg) | – | – | – |
| 135 | 173 | CCCc1nc(-c2ncc3c(n2)NC(=O)C3(C)c2ccc(Cl)c(F)c2)cn2ccnc12 (stereo not drawn) [Example 38B, 5-(4-chloro-3-fluorophenyl)-5-methyl-2-(8-propylimidazo[1,2-a]pyrazin-6-yl)-5H-pyrrolo[2,3-d]pyrimidin-6(7H)-one] | – | A (Category A=SBP in SHRs<20 mmHg) | – | – |
